According to patent publication EP4772500A1, “NOVEL ISOXAZOLE COMPOUND AS TM4SF5-SPECIFIC INHIBITOR AND USE THEREOF” (Seoul National University R&DB Foundation, priority 2023, dated 2025):

How the values were obtained:
Assay type in all cases: cell-based, human
[1] = test system: TM4SF5-non-expressing cells (SNU449Cp); assay: 2D cell growth/proliferation, TM4SF5-non-expressing cells; conditions: 2D environment (FIG. 3a)
Protocol: The drugs treated were the positive control drug TSAHC or the ST-1-025 isoxazole compound at the given concentrations. From the time of starting culture (0 day), (FIG. 3a) in the case of 2D culture, the number of cells was measured after treating with the drug every 24 hours, or (FIG. 3b) in a 3D environment, the proliferation of cells (spheres) was observed and photographed with an optical microscope on the 5th and 7th days after a single drug treatment at the start of culture.

SNU449-TM4SF5 cells = assay: Cell migration tracking, TM4SF5-expressing cells; conditions: SNU449-TM4SF5, 2.5, 5.0, or 10.0 µM, 17 hours (FIG. 7)
Protocol: (§1) SNU449-TM4SF5 cells, which were made to express TM4SF5 using a lentivirus in human hepatocellular carcinoma cells SNU449, and SNU449-EV cells, into which a control vector (empty vector, EV) was injected so that TM4SF5 is not expressed, were seeded to a density of 40% in 8-chamber plates (Thermo) coated with 10 µg/ml collagen type 1 (Advanced Biomatrix). Three hours after seeding in a cell culture environment containing 10% FBS (GenDEPOT), DMSO and drugs were treated in the culture medium at the indicated concentrations. After treating with the drugs, the positions of the same moving cells were repeatedly photographed using a microscope every 20 minutes for 17 hours. The cells were photographed using an IX81-ZDC microscope (Olympus) equipped with a UPLSAPO 10X2, NA0.4 Super Apochromatic objective lens (Olympus). While photographing the cells, a general cell culture environment was created by constantly injecting 5% CO2 at a rate of 40-60 mL/min at 37°C using a controller (Live Cell Instrument). The migration distance and path of the cells were calculated using the "Track Object" application of MetaMorph software (Molecular Devices LLC). […]

SNU449-EV cells = assay: Cell migration tracking, control cells; conditions: SNU449-EV, 2.5, 5.0, or 10.0 µM, 17 hours (FIG. 7)
Protocol: as §1

Question: How did the growth or proliferation [1] turn out when `COc1ccc(-c2cc(-c3ccc(N)cc3)no2)cc1` [ST-1-025, 4-(5-(4-methoxyphenyl)isoxazole-3-yl)aniline] was run?
Answer: no significant difference

Question: What does the source list for `COc1ccc(-c2cc(-c3ccc(NC(C)=O)cc3)no2)cc1` [ST-2-001, N-(4-(5-(4-methoxyphenyl)isoxazole-3-yl)phenyl)acetamide]?
Answer: migration of the cells (SNU449-TM4SF5 cells): decreased according to the treatment with ST-2-001 in a concentration-dependent manner; cell migration (SNU449-EV cells): did not change
